This is an account of results in patent publication US8765748B2, “Indazolyl, benzimidazolyl, benzotriazolyl substituted indolinone derivatives as kinase inhibitors useful in the treatment of cancer” (University Health Network, priority 2007, dated 2014).

pIC50: −log10 of the molar value.

Holding throughout (type): biochemical
One assay addresses T1, human PLK4 (Homo sapiens, UniProt O00444).
T1 construct: amino terminal GST fusion of residues 1-391 of human PLK4; made in house; host or cells: E. coli
T1 sequence (O00444 1-391): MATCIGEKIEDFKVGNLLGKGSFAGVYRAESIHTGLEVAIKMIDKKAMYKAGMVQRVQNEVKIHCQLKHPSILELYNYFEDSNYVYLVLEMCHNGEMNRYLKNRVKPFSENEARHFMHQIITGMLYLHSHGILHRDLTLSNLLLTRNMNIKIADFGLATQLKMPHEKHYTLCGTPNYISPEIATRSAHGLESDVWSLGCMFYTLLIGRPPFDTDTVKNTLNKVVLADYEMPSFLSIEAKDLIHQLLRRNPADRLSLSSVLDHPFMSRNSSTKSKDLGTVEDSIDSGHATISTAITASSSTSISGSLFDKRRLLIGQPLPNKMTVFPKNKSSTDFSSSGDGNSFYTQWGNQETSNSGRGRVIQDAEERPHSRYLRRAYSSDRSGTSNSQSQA
The assay can be described thus: PLK4 Inhibition Assay (indirect ELISA). The following applies: 15 μM ATP, 4 nM GST-PLK4; read-out: PLK4 IC50 Ranges. The method, boiled down: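 Dephosphorylated (lambda phosphatase) GST-PLK4 activity read by indirect ELISA. Compounds were pre-incubated with enzyme for 15 minutes before ATP was added. IC50 came from a non-linear 4-point logistic fit.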

For a further assay, the target named is T2, Aurora B (Homo sapiens, UniProt Q96GD4).
T2 construct: purchased Invitrogen PV3970
T2 sequence (Q96GD4 whole entry): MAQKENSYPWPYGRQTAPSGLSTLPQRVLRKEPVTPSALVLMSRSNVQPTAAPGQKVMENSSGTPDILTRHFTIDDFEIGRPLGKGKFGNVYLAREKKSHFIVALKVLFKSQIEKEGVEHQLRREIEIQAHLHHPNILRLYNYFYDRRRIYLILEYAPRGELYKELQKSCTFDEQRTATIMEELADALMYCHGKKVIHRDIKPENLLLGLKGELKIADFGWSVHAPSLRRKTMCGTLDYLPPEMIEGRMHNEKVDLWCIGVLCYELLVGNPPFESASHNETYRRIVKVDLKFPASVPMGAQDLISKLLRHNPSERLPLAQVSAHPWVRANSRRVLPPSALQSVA
The assay can be described thus: Aurora B Inhibition Assay (Z-Lyte). The following applies: 128 μM ATP, 28 nM Aurora B; read-out: Aurora B IC50 Ranges. The protocol:
Aurora B inhibition was determined using the Z-Lyte assay kit from Invitrogen. The assay was performed using the recommended manufacturer's instructions with 128 μM ATP and 28 nM Aurora B (Invitrogen cat #PV3970). The % inhibition values were determined according to the manufacturer's directions and IC50 values were obtained using a non-linear 4 point logistic curve fit (XLfit4, IDBS)

A further assay deals with T3, PLK1 (Homo sapiens, UniProt P53350).
T3 construct: purchased Invitrogen PV3501
T3 sequence (P53350 whole entry): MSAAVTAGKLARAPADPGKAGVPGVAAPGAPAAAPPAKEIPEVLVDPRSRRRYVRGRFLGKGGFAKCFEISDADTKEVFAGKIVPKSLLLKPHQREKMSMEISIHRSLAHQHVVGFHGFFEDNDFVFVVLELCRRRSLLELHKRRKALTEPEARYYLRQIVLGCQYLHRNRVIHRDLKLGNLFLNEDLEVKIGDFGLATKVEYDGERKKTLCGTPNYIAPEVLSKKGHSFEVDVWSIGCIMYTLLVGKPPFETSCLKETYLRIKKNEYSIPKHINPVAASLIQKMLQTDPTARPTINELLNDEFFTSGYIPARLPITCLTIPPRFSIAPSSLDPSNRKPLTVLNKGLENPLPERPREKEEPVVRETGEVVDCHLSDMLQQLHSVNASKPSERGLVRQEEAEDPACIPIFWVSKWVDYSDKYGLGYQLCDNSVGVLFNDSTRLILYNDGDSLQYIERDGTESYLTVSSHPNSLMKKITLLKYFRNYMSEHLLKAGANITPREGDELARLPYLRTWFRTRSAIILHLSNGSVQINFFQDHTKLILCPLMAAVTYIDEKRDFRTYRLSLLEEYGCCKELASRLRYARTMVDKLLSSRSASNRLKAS
The assay can be described thus: PLK1 Inhibition Assay (Z-Lyte). The following applies: for inhibition at 10 µM: 10 μM compound, read-out: PLK1 relative inhibition percentage at a dose of 10 μM; for pIC50: 25 μM ATP, 8 nM PLK1, read-out: PLK1 IC50 Ranges. The protocol:
PLK1 inhibition was determined using the Z-Lyte assay kit from Invitrogen (cat #PV3802). […] The % inhibition values were determined according to the manufacturer's directions and IC50 values were obtained using a non-linear 4 point logistic curve fit (XLfit4, IDBS)

The target of the next assay is T4, PLK2 (Homo sapiens, UniProt Q9NYY3).
T4 construct: purchased Invitrogen PV4204
T4 sequence (Q9NYY3 whole entry): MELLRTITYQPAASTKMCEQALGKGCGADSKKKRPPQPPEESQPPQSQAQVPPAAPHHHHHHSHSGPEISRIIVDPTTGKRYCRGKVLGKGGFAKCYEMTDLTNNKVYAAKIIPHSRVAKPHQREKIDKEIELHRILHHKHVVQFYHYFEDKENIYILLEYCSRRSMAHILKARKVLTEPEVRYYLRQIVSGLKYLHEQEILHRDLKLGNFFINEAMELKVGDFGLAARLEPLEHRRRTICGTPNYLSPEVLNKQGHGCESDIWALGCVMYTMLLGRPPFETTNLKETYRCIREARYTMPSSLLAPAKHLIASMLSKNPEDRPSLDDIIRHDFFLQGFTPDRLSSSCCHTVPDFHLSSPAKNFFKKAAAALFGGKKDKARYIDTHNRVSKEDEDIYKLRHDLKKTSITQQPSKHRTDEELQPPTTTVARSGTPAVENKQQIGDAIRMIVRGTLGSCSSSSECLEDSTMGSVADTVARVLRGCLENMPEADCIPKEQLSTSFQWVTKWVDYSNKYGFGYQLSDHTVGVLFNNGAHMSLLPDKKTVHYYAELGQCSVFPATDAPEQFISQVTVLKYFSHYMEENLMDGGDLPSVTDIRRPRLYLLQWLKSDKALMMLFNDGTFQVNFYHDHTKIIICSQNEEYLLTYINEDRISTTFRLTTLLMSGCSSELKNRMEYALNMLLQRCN
The assay can be described thus: PLK2 Inhibition Assay (Z-Lyte). As to conditions: for inhibition at 10 µM: 10 μM compound, read-out: PLK2 relative inhibition percentage at a dose of 10 μM; for pIC50: 60 μM ATP, 133 nM PLK2, read-out: PLK2 IC50 Ranges. The protocol:
PLK2 inhibition was determined using the Z-Lyte assay kit from Invitrogen (cat #PV3802). The assay was performed using the recommended manufacturer's instructions with 60 μM ATP and 133 nM PLK2 (Invitrogen cat #PV4204). The % inhibition values were determined according to the manufacturer's directions and IC50 values were obtained using a non-linear 4 point logistic curve fit (XLfit4, IDBS)

The target of a further assay is T5, Aurora A (Homo sapiens, UniProt O14965).
T5 construct: purchased Invitrogen PV3612
T5 sequence (O14965 1-403): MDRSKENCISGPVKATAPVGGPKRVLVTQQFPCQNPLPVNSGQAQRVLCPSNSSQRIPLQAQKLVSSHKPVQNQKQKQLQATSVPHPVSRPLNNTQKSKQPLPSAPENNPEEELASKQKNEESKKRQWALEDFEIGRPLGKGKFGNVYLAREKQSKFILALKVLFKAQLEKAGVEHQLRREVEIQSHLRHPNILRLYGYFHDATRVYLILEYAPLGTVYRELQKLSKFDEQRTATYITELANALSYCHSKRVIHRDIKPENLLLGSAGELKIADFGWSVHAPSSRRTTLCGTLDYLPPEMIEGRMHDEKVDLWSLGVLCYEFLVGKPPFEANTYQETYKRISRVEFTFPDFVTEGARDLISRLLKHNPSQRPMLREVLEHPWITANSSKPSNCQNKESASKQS
The assay can be described thus: Aurora A Inhibition Assay (Z-Lyte). The following applies: for pIC50: 20 μM ATP, 12 nM Aurora A, read-out: Aurora A IC50 Ranges; for inhibition at 10 µM: 10 μM compound, read-out: Aurora A relative inhibition percentage at a dose of 10 μM. As to the method:
Aurora A inhibition was determined using the Z-Lyte assay kit from Invitrogen. The assay was performed using the recommended manufacturer's instructions with 20 μM ATP and 12 nM Aurora A (Invitrogen cat #PV3612). The % inhibition values were determined according to the manufacturer's directions and IC50 values were obtained using a non-linear 4 point logistic curve fit (XLfit4, IDBS)

The target of another assay is Lyn (Homo sapiens, UniProt P07948). The assay can be described thus: Millipore kinase assay, radiolabelled phosphopeptide filter binding, IC50 estimate. Further details: purchased Millipore (assay service). The following applies: estimated from inhibition at three compound concentrations; ATP at the Km. The protocol:
(§1) Kinase assays at Millipore were performed using a radiolabelled phosphopeptide filter binding detection system, in duplicate, at each compound concentration. The ATP substrate concentration in the reactions was at the Km for each enzyme.
(§2) To allow for a more direct comparison of compound inhibition, an IC50 value was estimated from the inhibition determined at three compound concentrations. Several assumptions were made to allow this calculation using a 4 parameter non linear curve fit model, including full inhibition set at 100%, no inhibition set to 0%, and a curve fit parameter set at 1. The inflection point was reported as the estimated IC50.

A further assay concerns the target Ret (Homo sapiens, UniProt P07949). The description is as above. On the set-up: purchased Millipore (assay service). As to conditions: estimated from inhibition at three compound concentrations; ATP at the Km. The protocol: as §1, §2
For another assay, the target named is Abl (Homo sapiens, UniProt P00519). The description is as above. On the set-up: purchased Millipore (assay service). The following applies: estimated from inhibition at three compound concentrations; ATP at the Km. As to the method: as §1, §2
Sequence of Abl (P00519 whole entry): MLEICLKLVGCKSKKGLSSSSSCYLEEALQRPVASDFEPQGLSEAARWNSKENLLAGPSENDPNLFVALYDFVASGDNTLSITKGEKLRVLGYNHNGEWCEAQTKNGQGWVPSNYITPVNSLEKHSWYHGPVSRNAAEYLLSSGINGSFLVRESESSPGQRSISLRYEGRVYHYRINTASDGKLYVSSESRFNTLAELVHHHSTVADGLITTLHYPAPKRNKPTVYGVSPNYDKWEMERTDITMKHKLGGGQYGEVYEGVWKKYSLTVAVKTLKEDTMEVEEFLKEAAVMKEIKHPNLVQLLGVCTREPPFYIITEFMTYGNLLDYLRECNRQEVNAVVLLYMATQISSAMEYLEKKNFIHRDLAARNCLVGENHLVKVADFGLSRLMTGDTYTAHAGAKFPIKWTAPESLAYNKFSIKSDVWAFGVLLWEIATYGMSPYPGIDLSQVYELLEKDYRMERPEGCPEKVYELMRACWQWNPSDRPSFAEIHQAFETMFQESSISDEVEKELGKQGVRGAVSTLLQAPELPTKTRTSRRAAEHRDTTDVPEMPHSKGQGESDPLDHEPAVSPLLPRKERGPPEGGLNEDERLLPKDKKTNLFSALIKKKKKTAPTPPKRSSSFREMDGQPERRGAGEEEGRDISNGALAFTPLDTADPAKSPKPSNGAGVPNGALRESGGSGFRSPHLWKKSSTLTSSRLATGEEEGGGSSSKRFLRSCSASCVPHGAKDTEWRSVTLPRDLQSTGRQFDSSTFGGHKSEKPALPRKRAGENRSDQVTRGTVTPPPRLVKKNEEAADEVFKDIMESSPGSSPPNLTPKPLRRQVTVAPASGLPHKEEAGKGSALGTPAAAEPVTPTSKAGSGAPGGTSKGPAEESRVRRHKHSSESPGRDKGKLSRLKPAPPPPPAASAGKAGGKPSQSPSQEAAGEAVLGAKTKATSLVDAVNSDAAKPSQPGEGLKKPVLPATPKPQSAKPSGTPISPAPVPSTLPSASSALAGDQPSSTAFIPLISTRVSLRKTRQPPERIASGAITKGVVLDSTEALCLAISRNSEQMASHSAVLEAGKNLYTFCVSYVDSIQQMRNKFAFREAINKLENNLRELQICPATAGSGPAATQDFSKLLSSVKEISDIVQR
In a further assay the target is TRKA (Homo sapiens, UniProt P04629). The description is as above. Further details: purchased Millipore (assay service). As to conditions: estimated from inhibition at three compound concentrations; ATP at the Km. The protocol:
as §1, §2

Sequence of TRKA (P04629 33-796): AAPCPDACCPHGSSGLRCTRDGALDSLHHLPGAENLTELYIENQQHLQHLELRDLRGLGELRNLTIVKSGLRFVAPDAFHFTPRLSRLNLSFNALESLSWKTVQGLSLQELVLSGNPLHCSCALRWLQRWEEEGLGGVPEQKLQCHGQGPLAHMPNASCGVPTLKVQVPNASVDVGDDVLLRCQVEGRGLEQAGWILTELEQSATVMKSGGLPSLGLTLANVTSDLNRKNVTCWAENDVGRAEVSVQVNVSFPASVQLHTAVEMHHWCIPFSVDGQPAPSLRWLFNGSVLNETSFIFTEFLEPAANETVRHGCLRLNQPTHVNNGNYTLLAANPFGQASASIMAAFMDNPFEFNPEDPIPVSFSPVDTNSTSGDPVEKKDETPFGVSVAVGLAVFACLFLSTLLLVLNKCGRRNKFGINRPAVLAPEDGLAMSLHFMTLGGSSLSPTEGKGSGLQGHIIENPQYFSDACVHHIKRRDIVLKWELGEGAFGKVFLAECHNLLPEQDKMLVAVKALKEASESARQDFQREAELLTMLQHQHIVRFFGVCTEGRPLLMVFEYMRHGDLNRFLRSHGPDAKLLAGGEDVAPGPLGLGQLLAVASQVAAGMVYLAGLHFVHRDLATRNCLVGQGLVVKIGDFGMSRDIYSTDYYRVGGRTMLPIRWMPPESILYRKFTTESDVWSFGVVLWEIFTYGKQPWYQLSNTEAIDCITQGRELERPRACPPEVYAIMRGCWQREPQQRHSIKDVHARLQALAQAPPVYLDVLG
Sequence of Ret (P07949 29-1114): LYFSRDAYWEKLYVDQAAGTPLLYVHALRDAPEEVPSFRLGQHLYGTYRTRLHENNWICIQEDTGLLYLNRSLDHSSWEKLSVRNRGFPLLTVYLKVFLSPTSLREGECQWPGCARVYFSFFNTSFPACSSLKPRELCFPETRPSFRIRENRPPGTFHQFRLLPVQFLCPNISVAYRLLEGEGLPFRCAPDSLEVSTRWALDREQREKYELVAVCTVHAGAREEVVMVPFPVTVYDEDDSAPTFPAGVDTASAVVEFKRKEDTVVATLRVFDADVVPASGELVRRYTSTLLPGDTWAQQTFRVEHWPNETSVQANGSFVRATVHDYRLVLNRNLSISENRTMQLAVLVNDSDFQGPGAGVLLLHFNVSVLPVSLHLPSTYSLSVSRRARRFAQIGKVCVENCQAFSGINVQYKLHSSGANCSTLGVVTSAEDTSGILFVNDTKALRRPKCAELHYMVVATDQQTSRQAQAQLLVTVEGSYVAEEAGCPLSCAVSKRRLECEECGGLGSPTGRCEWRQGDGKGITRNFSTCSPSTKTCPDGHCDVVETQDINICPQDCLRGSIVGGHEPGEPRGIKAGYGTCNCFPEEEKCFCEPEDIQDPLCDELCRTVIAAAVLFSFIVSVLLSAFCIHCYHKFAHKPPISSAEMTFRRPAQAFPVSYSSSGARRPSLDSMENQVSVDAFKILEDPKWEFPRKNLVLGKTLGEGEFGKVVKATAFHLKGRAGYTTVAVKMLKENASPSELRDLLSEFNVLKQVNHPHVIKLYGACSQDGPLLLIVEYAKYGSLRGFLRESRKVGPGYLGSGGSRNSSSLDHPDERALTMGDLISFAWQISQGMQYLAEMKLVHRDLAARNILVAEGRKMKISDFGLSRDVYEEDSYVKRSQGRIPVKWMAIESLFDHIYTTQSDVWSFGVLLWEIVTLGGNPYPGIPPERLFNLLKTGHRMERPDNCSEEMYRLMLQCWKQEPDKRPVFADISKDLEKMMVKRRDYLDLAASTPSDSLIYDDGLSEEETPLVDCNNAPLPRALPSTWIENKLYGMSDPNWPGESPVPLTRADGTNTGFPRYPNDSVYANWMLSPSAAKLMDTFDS

As a reminder, the pIC50 is the negative decadic logarithm of the IC50, by convention in mol/L. One may read the inhibition as how much of the control response was suppressed. On to `CN1CCN(c2ccc(/C=C/c3n[nH]c4cc(C=C5C(=O)Nc6ccccc65)ccc34)cn2)CC1` (mixture of isomers) [Example A108, (E and Z)-3-((3-((E)-2-(6-(4-methylpiperazin-1-yl)pyridin-3-yl)vinyl)-1H-indazol-6-yl)methylene)indolin-2-one], for which the pIC50 on human PLK4, on Aurora B and on Aurora A was more than 5.30 throughout. The inhibition at 10 µM on PLK1 and at PLK2 was less than 50% each time.

Consider `COc1ccc2c(c1)C(=Cc1ccc3c(-c4ccc(N5CCN(C)CC5)nc4)n[nH]c3c1)C(=O)N2` (mixture of isomers) [Example A97, (E and Z)-5-methoxy-3-((3-(6-(4-methylpiperazin-1-yl)pyridin-3-yl)-1H-indazol-6-yl)methylene)indolin-2-one], for which the pIC50 on human PLK4 was more than 5.30; on Lyn, 4.30 to 5.30; on Ret, more than 5.30; at Abl it was more than 5.30; on TRKA it was more than 5.30; on Aurora B it was more than 5.30.

With `CN(C)Cc1ccc(/C=C/c2n[nH]c3cc(C=C4C(=O)Nc5ccccc54)ccc23)cc1` (mixture of isomers) [Example A106, (E and Z)-3-[(3-{(E)-2-[4-((dimethylamino)methyl)-phenyl]-ethenyl}-1H-indazol-6-yl)methylidene]-1,3-dihydro-2H-indol-2-one 2,2,2-trifluoroacetate], the pIC50 at human PLK4, at Lyn, at Ret, on Abl, on TRKA and at Aurora B was more than 5.30 throughout. Besides, the inhibition at 10 µM was less than 50% on PLK1 and more than 50% on Aurora A.

With `O=C1Nc2ccccc2C1=Cc1ccc2c(/C=C/c3ccccn3)n[nH]c2c1` (mixture of isomers) [Example A41, (E and Z)-3-((3-((E)-2-(pyridin-2-yl)vinyl)-1H-indazol-6-yl)methylene)indolin-2-one], the negative-log IC50 (pIC50) on human PLK4, at Lyn, on Ret, at Abl, on TRKA and on Aurora B was more than 5.30 throughout. In addition, the pIC50 at PLK1 was less than 4.30; at PLK2 it was less than 4.30; at Aurora A, more than 5.30.

As for `O=C1Nc2ccccc2/C1=C\c1ccc2[nH]nnc2c1` [Example A1, (E)-3-((1H-benzo[d][1,2,3]triazol-5-yl)methylene)indolin-2-one], the pIC50 is more than 5.30 on human PLK4, more than 5.30 on Aurora B, 4.30 to 5.30 at PLK1 and 4.30 to 5.30 on PLK2. The inhibition at 10 µM on Aurora A is less than 50%.

Take `O=C1Nc2ncc(Br)cc2C1=Cc1ccc2c(/C=C/c3ccncc3)n[nH]c2c1` (mixture of isomers) [Example A109, (E and Z)-5-bromo-3-((3-((E)-2-(pyridin-4-yl)vinyl)-1H-indazol-6-yl)methyl-ene)-1H-pyrrolo[2,3-b]pyridin-2(3H)-one]: the pIC50 at human PLK4, at Aurora B and at Aurora A was more than 5.30 throughout. The inhibition at 10 µM at PLK1 and at PLK2 was less than 50% throughout.

`O=C1Nc2ccccc2/C1=C\c1ccc2cn[nH]c2c1` [Example A5, (E)-3-((1H-indazol-6-yl)methylene)indolin-2-one]: the pIC50 at Aurora B was more than 5.30; on PLK1, 4.30 to 5.30; on PLK2, 4.30 to 5.30; on Aurora A, more than 5.30.

As for `O=C1Nc2ccccc2/C1=C\c1ccc2c(/C=C/c3ccccc3Cl)n[nH]c2c1` [Example A60, (E)-3-((3-((E)-2-chlorostyryl)-1H-indazol-6-yl)methylene)indolin-2-one], the pIC50 on human PLK4, on Aurora B and at Aurora A was more than 5.30 each time. Besides, the inhibition at 10 µM at PLK1 and on PLK2 was less than 50% in each case.
